Biological target: T1, ASGP receptor (biotinylated ASGPR) (Homo sapiens, UniProt P07306)
T1 construct: biotin (biotinylated)
T1 sequence (P07306 1-291): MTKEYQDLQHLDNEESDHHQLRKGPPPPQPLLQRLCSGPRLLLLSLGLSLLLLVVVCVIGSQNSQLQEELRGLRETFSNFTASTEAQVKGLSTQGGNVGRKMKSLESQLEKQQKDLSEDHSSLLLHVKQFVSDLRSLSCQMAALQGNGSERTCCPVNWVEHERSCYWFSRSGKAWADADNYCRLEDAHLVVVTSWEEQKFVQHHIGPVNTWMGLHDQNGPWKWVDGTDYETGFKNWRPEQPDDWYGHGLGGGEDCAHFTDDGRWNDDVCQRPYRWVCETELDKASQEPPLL
Assay type: binding
Settings: SPR, Biacore 8K, 25° C.; Table 1A; read-out: ASGPR KD

Kd, < 10 µM:
O=C(NC[C@H]1OC[C@H](Nc2cncc(C(F)(F)F)n2)[C@@H](O)[C@H]1O)c1cc2ccccc2[nH]1 [A14, N-(((2R,3R,4R,5S)-3,4-dihydroxy-5-((6-(trifluoromethyl)pyrazin-2-yl)amino)tetrahydro-2H-pyran-2-yl)methyl)-1H-indole-2-carboxamide]
O=C(NC[C@H]1OC[C@H](Nc2cncc(C(F)(F)F)n2)[C@@H](O)[C@H]1O)c1ccncc1 [A80, N-(((2R,3R,4R,5S)-3,4-dihydroxy-5-((6-(trifluoromethyl)pyrazin-2-yl)amino)tetrahydro-2H-pyran-2-yl)methyl)isonicotinamide]
O=C(NC[C@H]1OC[C@H](Nc2cncc(C(F)(F)F)n2)[C@@H](O)[C@H]1O)c1cccc(F)c1 [A24, N-(((2R,3R,4R,5S)-3,4-dihydroxy-5-((6-(trifluoromethyl)pyrazin-2-yl)amino)tetrahydro-2H-pyran-2-yl)methyl)-3-fluorobenzamide]
O[C@@H]1[C@H](O)[C@@H](Nc2cncc(C(F)(F)F)n2)CO[C@@H]1CNc1cccnc1 [A28, (2R,3R,4R,5S)-2-((pyridin-3-ylamino)methyl)-5-((6-(trifluoromethyl)pyrazin-2-yl)amino)tetrahydro-2H-pyran-3,4-diol]
O=C(O)c1ccc2c(c1)C(F)(F)c1cc(C(=O)NC[C@H]3OC[C@H](Nc4cncc(C(F)(F)F)n4)[C@@H](O)[C@H]3O)ccc1-2 [A52]
O=C(NC[C@H]1OC[C@H](Nc2cncc(C(F)(F)F)n2)[C@@H](O)[C@H]1O)c1cnc(-c2ccccc2)cn1 [A83, N-(((2R,3R,4R,5 S)-3,4-dihydroxy-5-((6-(trifluoromethyl)pyrazin-2-yl)amino)tetrahydro-2H-pyran-2-yl)methyl)-5-phenylpyrazine-2-carboxamide]
O=C(NC[C@H]1OC[C@H](Nc2cncc(C(F)(F)F)n2)[C@@H](O)[C@H]1O)c1cnc2ccccc2c1 [A8, N-(((2R,3R,4R,5S)-3,4-dihydroxy-5-((6-(trifluoromethyl)pyrazin-2-yl)amino)tetrahydro-2H-pyran-2-yl)methyl)quinoline-3-carboxamide]
O=C(NC[C@H]1OC[C@H](Nc2cncc(C(F)(F)F)n2)[C@@H](O)[C@H]1O)c1ccc(-c2ccccc2)nc1 [A7, N-(((2R,3R,4R,5S)-3,4-dihydroxy-5-((6-(trifluoromethyl)pyrazin-2-yl)amino)tetrahydro-2H-pyran-2-yl)methyl)-6-phenylnicotinamide]
O=C(O)COCCOCC(=O)NC[C@H]1OC[C@H](Nc2nc(C(F)(F)F)ccc2F)[C@@H](O)[C@H]1O [A110, 2-(2-(2-((((2R,3R,4R,5S)-5-((3-fluoro-6-(trifluoromethyl)pyridin-2-yl)amino) 3,4-dihydroxytetrahydro-2H-pyran-2-yl)methyl)amino)-2-oxoethoxy)ethoxy)acetic acid]

Kd, 10 to 100 µM:
OC[C@H]1CC[C@H](Nc2nccc(C(F)(F)F)n2)[C@@H](O)[C@H]1O [A54, (1R,2S,3R,6S)-3-(hydroxymethyl)-6-((4-(trifluoromethyl)pyrimidin-2-yl)amino)cyclohexane-1,2-diol]

Same assay, conditions: SPR, Biacore 8K, 25° C.; Table 1B; read-out: ASGPR Kd

Kd, < 10 µM:
COc1cccc(N[C@H]2CO[C@H](CO)[C@H](O)[C@@H]2O)n1 [A164, (2R,3R,4R,5S)-2-(hydroxymethyl)-5-((6-methoxypyridin-2-yl)amino)tetrahydro-2H-pyran-3,4-diol]
N#Cc1cc(N[C@H]2CO[C@H](CO)[C@H](O)[C@@H]2O)nc(C(F)(F)F)c1 [A139, 2-(((3S,4R,5R,6R)-4,5-dihydroxy-6-(hydroxymethyl)tetrahydro-2H-pyran-3-yl)amino)-6-(trifluoromethyl)isonicotinonitrile]
COc1cc(N[C@H]2CO[C@H](CO)[C@H](O)[C@@H]2O)nc(C(F)(F)F)c1 [A151, (2R,3R,4R,5S)-2-(hydroxymethyl)-5-((4-methoxy-6-(trifluoromethyl)pyridin-2-yl)amino)tetrahydro-2H-pyran-3,4-diol]

Same assay, conditions: SPR, Biacore 8K, 25° C.; Table 1C; read-out: ASGPR KD

Kd, < 10 µM:
CC(C)(C)OC(=O)N1CC2CN(C[C@H]3OC[C@H](Nc4cncc(C(F)(F)F)n4)[C@@H](O)[C@H]3O)CC21 (stereo partly drawn) [A230, tert-butyl 3-(((2R,3R,4R,5S)-3,4-dihydroxy-5-((6-(trifluoromethyl)pyrazin-2-yl)amino)tetrahydro-2H-pyran-2-yl)methyl)-3,6-diazabicyclo [3.2.0] heptane-6-carboxylate]
O[C@@H]1[C@H](O)[C@@H](Nc2cccc(C(F)(F)F)n2)CO[C@@H]1COc1ccc(-c2ccccc2)cc1 [A196, (2R,3R,4R,5S)-2-(([1,1′-biphenyl]-4-yloxy)methyl)-5-((6-(trifluoromethyl)pyridin-2-yl)amino)tetrahydro-2H-pyran-3,4-diol]
CC(C)(C)OC(=O)N1CCC2(CC1)CN(C[C@H]1OC[C@H](Oc3cccc(C(F)(F)F)n3)[C@@H](O)[C@H]1O)C2 [A267]
CC(C)(C)OC(=O)N1CC2CN(C[C@H]3OC[C@H](Oc4cccc(C(F)(F)F)n4)[C@@H](O)[C@H]3O)CC21 (stereo partly drawn) [A261]
O[C@@H]1[C@H](O)[C@@H](Nc2cncc(C(F)(F)F)n2)CO[C@@H]1COc1cccnn1 [A212, (2R,3R,4R,5S)-2-((pyridazin-3-yloxy)methyl)-5-((6-(trifluoromethyl)pyrazin-2-yl)amino)tetrahydro-2H-pyran-3,4-diol]
O[C@@H]1[C@H](O)[C@@H](Oc2cccc(C(F)(F)F)n2)CO[C@@H]1COc1cnccn1 [A229, (2R,3R,4S,5S)-2-((pyrazin-2-yloxy)methyl)-5-((6-(trifluoromethyl)pyridin-2-yl)oxy)tetrahydro-2H-pyran-3,4-diol]
O=C1c2c(F)cccc2CN1C[C@H]1OC[C@H](Oc2cccc(C(F)(F)F)n2)[C@@H](O)[C@H]1O [A272]
C[C@H]1O[C@H](c2cc[nH]n2)[C@H](Oc2cccc(C(F)(F)F)n2)[C@@H](O)[C@H]1O [A332]
CC(C)(C)OC(=O)N1CC=C(c2cccc(N[C@H]3CO[C@H](CO)[C@H](O)[C@@H]3O)n2)CC1 [A195, tert-butyl 6-(((3S,4R,5R,6R)-4,5-dihydroxy-6-(hydroxymethyl)tetrahydro-2H-pyran-3-yl)amino)-3′,6′-dihydro-[2,4′-bipyridine]-1′(2′H)-carboxylate]
C#C[C@H]1O[C@H](C)[C@H](O)[C@H](O)[C@H]1Oc1cccc(C(F)(F)F)n1 [A214, (2R,3R,4S,5R,6R)-6-ethynyl-2-methyl-5-((6-(trifluoromethyl)pyridin-2-yl)oxy)tetrahydro-2H-pyran-3,4-diol]
O=C(c1ccc(Cl)cc1)[C@H]1OC[C@H](Oc2cccc(C(F)(F)F)n2)[C@@H](O)[C@H]1O [A299]
O[C@@H]1[C@H](O)[C@@H](Nc2cncc(C(F)(F)F)n2)CO[C@@H]1c1cn(C2CCNCC2)nn1 [A200, (2R,3R,4R,5S)-2-(1-(piperidin-4-yl)-1H-1,2,3-triazol-4-yl)-5-((6-(trifluoromethyl)pyrazin-2-yl)amino)tetrahydro-2H-pyran-3,4-diol]
O[C@@H]1[C@H](O)[C@@H](Oc2cccc(C(F)(F)F)n2)CO[C@@H]1CN1CCN(c2ccccn2)CC1 [A259]
CC(C)(C)OC(=O)N1CCC2CN(C[C@H]3OC[C@H](Oc4cccc(C(F)(F)F)n4)[C@@H](O)[C@H]3O)CC2C1 (stereo partly drawn) [A271]
Cc1cncc(N[C@H]2CO[C@H](CO)[C@H](O)[C@@H]2O)n1 [A180, (2R,3R,4R,5S)-2-(hydroxymethyl)-5-((6-methylpyrazin-2-yl)amino)tetrahydro-2H-pyran-3,4-diol]
O[C@@H]1[C@H](O)[C@@H](Oc2cccc(C(F)(F)F)n2)CO[C@@H]1COc1ccc(N2CCNCC2)c(F)c1 [A247]

Same assay, conditions: SPR, Biacore 8K, 25° C.; Table 1D; read-out: ASGPR KD

Kd, 10 to 100 µM:
CN1C[C@H](Oc2cccc(C(F)(F)F)n2)[C@@H](O)[C@@H](O)C1 [A403]
O[C@@H]1[C@@H](Nc2nccc(C(F)(F)F)n2)CNC[C@@H]1O [A370]
O[C@@H]1[C@@H](Nc2nc(Cl)nn3cccc23)CNC[C@@H]1O [A382]

Kd, < 10 µM:
O=C(O)c1ccc(C(=O)N2C[C@H](Nc3cncc(C(F)(F)F)n3)[C@@H](O)[C@@H](O)C2)nc1 [A392]
O[C@@H]1[C@@H](Nc2cccc(C(F)(F)F)n2)CN(C2CCNCC2)C[C@@H]1O [A396]
O=C(O)CCCCC(=O)N1C[C@H](Nc2cncc(C(F)(F)F)n2)[C@@H](O)[C@@H](O)C1 [A408]
O=C(OCc1ccccc1)N1C[C@H](Nc2nccc(C(F)(F)F)n2)[C@@H](O)[C@@H](O)C1 [A369]
O=C(c1ccc(-c2ccccc2)cc1)N1C[C@H](Nc2cncc(C(F)(F)F)n2)[C@@H](O)[C@@H](O)C1 [A376]
O=C(OCc1ccccc1)N1CCC(c2cnc(OC[C@H]3OC[C@H](Nc4cncc(C(F)(F)F)n4)[C@@H](O)[C@H]3O)cn2)CC1 [A409]
Cc1nnc(N2C[C@H](Oc3cccc(C(F)(F)F)n3)[C@@H](O)[C@@H](O)C2)o1 [A352]

Same assay, conditions: SPR, Biacore 8K, 25° C.; Table 1E; read-out: ASGPR KD

Kd, < 10 µM:
C#Cc1ccc(OC[C@H]2O[C@H](C)[C@H](O)[C@H](O)[C@H]2Oc2cccc(C(F)(F)F)n2)nn1 [A442]
C[C@H]1O[C@H](C2=CC3C(C2=O)[C@H]2CC[C@@H]3C2)[C@H](Oc2cccc(C(F)(F)F)n2)[C@@H](O)[C@H]1O (stereo partly drawn) [A435B]
C[C@H]1O[C@H](C2=CC3C4CCC(C4)C3C2=O)[C@H](Oc2cccc(C(F)(F)F)n2)[C@@H](O)[C@H]1O (stereo partly drawn) [A435]

From patent publication US20260083851A1 (AVILAR THERAPEUTICS, INC., priority 2022, published 2026)
